Test results taken from ChEMBL document CHEMBL3639079, “Hydroxamic acid derivative” (2015).

Biological target: T1, UDP-3-O-acyl-N-acetylglucosamine deacetylase (Pseudomonas aeruginosa (strain ATCC 15692 / PAO1 / 1C / PRS 101 / LMG12228), UniProt P47205)
T1 sequence (P47205 whole entry): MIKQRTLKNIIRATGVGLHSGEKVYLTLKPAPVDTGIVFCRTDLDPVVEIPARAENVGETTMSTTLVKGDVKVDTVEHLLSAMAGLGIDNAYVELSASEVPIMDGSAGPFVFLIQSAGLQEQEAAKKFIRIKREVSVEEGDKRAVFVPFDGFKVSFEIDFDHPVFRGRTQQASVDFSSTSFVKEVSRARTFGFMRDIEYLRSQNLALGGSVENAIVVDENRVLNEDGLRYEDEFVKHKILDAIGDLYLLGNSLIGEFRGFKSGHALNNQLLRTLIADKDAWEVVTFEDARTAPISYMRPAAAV
Description: The reaction was performed in 40 mmol/L of Hepes buffer solution (pH 8.0) supplemented with 0.02% Bridge 35 and 80 µmol/L of dithiothreitol. To terminate the reaction, 0.2 mol/L of borax was added to the reaction mixture.

## CNC(=O)C(C(=O)NO)N(C)C(=O)c1ccc(-c2ccc(OCCCN3CCOCC3)cc2)cc1 (stereo unspecified)
  IC50: 6.7 nM
